The text below walks through data of ChEMBL document CHEMBL4251642 (Eur J Med Chem, 2018).

Activity calls are given as the source filed them. The rule behind the calls is not given here.

For data set [1], the system named is Influenza A virus. The experiment in a line: Antiviral activity against Influenza A virus (A/WSN/1933(H1N1)) infected in MDCK cells assessed as inhibition of virus-induced cytopathic effect after 48 hrs by CellTiter96 Aqueous non-radioactive cell proliferation assay. The data set is classed as functional, organism-based. A general note: Cytopathic effects are the visible damage that an infection or toxin causes in cultured cells.

Data set [2] is described as follows: Cytotoxicity against MDCK cells after 48 hrs by CellTiter96 Aqueous non-radioactive cell proliferation assay. The format is cell-based, Canis lupus familiaris. As to conditions: dog.
The subject of data set [3] is Influenza A virus. The experiment in a line: Antiviral activity against Influenza A virus (A/WSN/1933(H1N1)) infected in BALB/c mouse assessed as mouse survival at 0.96 umol/day, po for 5 consecutive days measured on day 14 post dose. The format is functional.
The target of data set [4] is Neuraminidase (Influenza A virus (strain A/Wilson-Smith/1933 H1N1) (Influenza A virus(strain A/WS/1933 H1N1)), UniProt P03470).
Data set [5] is described as follows: Drug metabolism in rabbit serum assessed as 3-[(1S,2R,3R,5S)-2-[(S)-1-acetamido-2-ethylbutyl]-5-carboxy-3-guanidinocyclopentoxycarbonyl]aminopropan-1-aminium trifluoroacetate formation at 37 degC after 24 hrs by HPLC-ESI-MS analysis. The data set is classed as ADME, cell-free, Oryctolagus cuniculus.
Data set [6] in a line: Stability in rabbit serum at 37 degC after 24 hrs by HPLC-ESI-MS analysis. The data set is classed as ADME, cell-free, Oryctolagus cuniculus.
The subject of data set [7] is Influenza A virus. The experiment in a line: Antiviral activity against Influenza A virus (A/WSN/1933(H1N1)) infected in BALB/c mouse assessed as mouse survival at 0.72 umol/day, po for 5 consecutive days measured on day 14 post dose. The data set is classed as functional, organism-based.
The target in data set [8] is Neuraminidase (Influenza A virus (strain A/Wilson-Smith/1933 H1N1) (Influenza A virus(strain A/WS/1933 H1N1)), UniProt P03470). The source holds these as a separate data set.
The nature of data set [9]: Drug metabolism in rabbit serum assessed as (1S,2S,3R,4R)-3-[(S)-1-acetamido-2-ethylbutyl]-4-guanidino-2-[(3-hydroxypropyl)carbamoyloxy]cyclopentane-1-carboxylic acid formation at 37 degC after 24 hrs by HPLC-ESI-MS analysis. The format is ADME, cell-free, Oryctolagus cuniculus.
Data set [10] is described as follows: Drug level in rabbit serum treated with (1S,2S,3R,4R)-3-[(S)-1-Acetamido-2-ethylbutyl]-2-[[3-((E)-3-(3,4-dihydroxyphenyl)acryloyloxy)propyl]carbamoyloxy]-4-guanidinocyclopentane-1-carboxylic acid at 37 degC after 24 hrs by HPLC-ESI-MS analysis. The data set is classed as ADME, cell-free, Oryctolagus cuniculus.
Data set [11] concerns the target Neuraminidase (Influenza A virus (A/Memphis/1/1971(H3N2)), UniProt P03471). The data set is classed as cell-based, Influenza A virus (A/Brisbane/10/2007(H3N2)), HEK293.

Sequence of Neuraminidase (Influenza A virus (strain A/Wilson-Smith/1933 H1N1) (Influenza A virus(strain A/WS/1933 H1N1)), UniProt P03470) (P03470 whole entry): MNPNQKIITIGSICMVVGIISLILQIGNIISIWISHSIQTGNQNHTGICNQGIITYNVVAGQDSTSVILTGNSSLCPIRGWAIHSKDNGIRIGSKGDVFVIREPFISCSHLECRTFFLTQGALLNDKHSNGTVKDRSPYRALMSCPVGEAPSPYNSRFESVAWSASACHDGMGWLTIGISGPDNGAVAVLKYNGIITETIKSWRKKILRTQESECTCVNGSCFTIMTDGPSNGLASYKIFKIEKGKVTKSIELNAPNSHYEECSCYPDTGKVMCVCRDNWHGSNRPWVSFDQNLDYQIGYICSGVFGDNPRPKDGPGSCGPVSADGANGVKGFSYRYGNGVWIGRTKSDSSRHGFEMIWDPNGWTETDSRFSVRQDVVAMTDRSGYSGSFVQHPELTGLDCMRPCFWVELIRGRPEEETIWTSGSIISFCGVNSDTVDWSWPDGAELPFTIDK
Sequence of Neuraminidase (Influenza A virus (A/Memphis/1/1971(H3N2)), UniProt P03471) (P03471 whole entry): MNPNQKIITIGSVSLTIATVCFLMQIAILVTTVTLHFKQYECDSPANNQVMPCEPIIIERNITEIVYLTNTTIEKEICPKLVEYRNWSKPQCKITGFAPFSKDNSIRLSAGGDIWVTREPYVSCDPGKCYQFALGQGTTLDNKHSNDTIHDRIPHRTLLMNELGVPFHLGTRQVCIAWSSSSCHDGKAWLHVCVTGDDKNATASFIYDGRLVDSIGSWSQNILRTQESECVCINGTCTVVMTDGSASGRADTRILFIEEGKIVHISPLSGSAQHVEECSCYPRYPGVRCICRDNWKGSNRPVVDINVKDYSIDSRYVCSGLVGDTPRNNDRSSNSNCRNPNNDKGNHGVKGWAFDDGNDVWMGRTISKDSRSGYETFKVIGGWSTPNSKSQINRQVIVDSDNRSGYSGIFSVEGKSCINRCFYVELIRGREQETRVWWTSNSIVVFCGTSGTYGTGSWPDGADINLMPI

Take `CCC(CC)OC1C=C(C(=O)O)C[C@H](N)[C@H]1NC(C)=O` (some centres undefined): the EC50 – broadly, the concentration giving half of the maximal effect – in the data set on Influenza A virus [1] turned out to be 16.6 nM. The CC50 (in general, the concentration that lowers cell viability or growth by half) at 48 h in data set [2] is over 100000 nM.

Turning to `CCOC(=O)C1=C[C@@H](OC(CC)CC)[C@H](NC(C)=O)[C@@H](N)C1` [OSELTAMIVIR], the result in the data set on Influenza A virus [3] was Active.

As for `CCC(CC)[C@H](NC(C)=O)[C@@H]1[C@H](OC(=O)NCCCOCCCc2ccc(O)c(O)c2)[C@@H](C(=O)O)C[C@H]1NC(=N)N`, the EC50 in the data set with Influenza A virus [1] was found to be 3.5 nM. Also, the CC50 at 48 h in data set [2] is over 100000 nM. The midpoint of inhibition in data set [4], the IC50, lay at 0.67 nM. In addition, the Survival in the data set on Influenza A virus [3] is 50%.

Regarding `CCC(CC)[C@H](NC(C)=O)[C@@H]1[C@H](OC(=O)NCCCNC(=O)/C=C/c2ccc(O)c(O)c2)[C@@H](C(=O)O)C[C@H]1NC(=N)N`, the EC50 with Influenza A virus [1] is 1.56 nM. Moreover, the Drug metabolism result is “Metabolite_Notdetected” in [5] and “Metabolite_Detected” in data set [9]. The CC50 at 48 h in data set [2] was over 100000 nM. The Stability result in [6] was “Stable”. Besides, the result in the data set with Influenza A virus [7] was Active. For the same compound, the IC50 (usually the concentration needed to halve the response being measured) was found to be 0.44 nM in [4] and 1.8 nM in [8]. Further, in the data set with Influenza A virus [3], the Survival is on record as 100%.

Regarding `CCC(CC)[C@H](NC(C)=O)[C@@H]1[C@H](OC(=O)NCCCO)[C@@H](C(=O)O)C[C@H]1NC(=N)N`, the EC50 in the data set on Influenza A virus [1] stood at 2.22 nM. Besides, in data set [2], the CC50 at 48 h was over 100000 nM. This compound displayed an IC50 in data set [4] of 0.64 nM. Besides, in data set [10], the Drug uptake stood at 26%.

Turning to `CCC(CC)[C@H](NC(C)=O)[C@@H]1[C@H](OC(=O)NCCCN)[C@@H](C(=O)O)C[C@H]1NC(=N)N`, the EC50 in the data set with Influenza A virus [1] stood at 2.58 nM. Moreover, in data set [2], the CC50 at 48 h is over 100000 nM. Inhibition in [4] was half-maximal at 0.94 nM (IC50).

With `CCC(CC)[C@H](NC(C)=O)[C@@H]1[C@H](O)[C@@H](C(=O)O)C[C@H]1NC(=N)N` [PERAMIVIR ANHYDROUS], in the data set on Influenza A virus [1], the concentration giving a half-maximal response (EC50) is 6.68 nM. For the same compound, in data set [2], the CC50 at 48 h was over 100000 nM. Moreover, the figures for the IC50 in data set [11], in data set [4] and in [8] were 2 nM, 0.48 nM and 0.4 nM, respectively.

As for `CCC(CC)[C@H](NC(C)=O)[C@@H]1[C@H](OC(=O)NCCCOC(=O)/C=C/c2ccc(O)c(O)c2)[C@@H](C(=O)O)C[C@H]1NC(=N)N`, the EC50 in the data set on Influenza A virus [1] turned out to be 1.68 nM. The CC50 at 48 h in [2] is over 100000 nM. In addition, the IC50 in data set [11] came to 27.2 nM; in data set [4], 1.05 nM; in data set [8], 0.9 nM. In addition, in the data set on Influenza A virus [7], the outcome was Active.
